The values that follow come from patent US9630977B2, “Cephalosporin derivatives and pharmaceutical compositions thereof” (Legochem Biosciences, Inc., priority 2011, dated 2017).

The subject of experiment [1] is A. baumannii (6 clinical isolates). Description: Antibacterial activity on representative drug-resistance bacteria: number of clinical isolates per MIC value. It is filed as cell-based. The following applies: A. baumanni (N = 6). Here is the method:
(§1) The in vitro antibacterial activity was evaluated by measuring MIC90 (ug/mL) of each of the compounds of Examples 1 to 68, which is defined as the lowest concentration of an antibiotic that will inhibit the visible growth of 90% of microorganisms after incubation as compared with a control group to which the antibiotic is not treated. MIC90 values were measured by the broth microdilution method developed by the Clinical and Laboratory Standards Institute (CLSI) (see CLSI M7-A5, Methods for Dilution Antimicrobial Susceptibility Test for Bacteria that Grow Aerobically-Fifth Edition (2000): CLSI, Villanova, Pa.).
(§2) Test compounds each (the cephalosporin derivative compounds prepared in Examples 1 to 68) were dissolved in DMSO at the concentration of 10,240 ug/mL, were diluted by two fold with DMSO, and then were diluted by twenty fold with sterilized distilled water. The final concentration in the antibacterial activity test was in the range of […] to 128 ug/mL, and the final concentration of DMSO used as an adjuvant was 2.5% (V/V).

Experiment [2] relates to P. aeruginosa (16 clinical isolates). The description is as above. It is filed as cell-based. The following applies: P. aeruginosa (N = 16). Here is the method: as §1, §2
Experiment [3] concerns K. pneumoniae (38 clinical isolates). Described as above. The following applies: K. pneumomiae (N = 38). Format: cell-based. The protocol:
as §1, §2

The test system of experiment [4] is P. aeruginosa 1912E. Kind of experiment: In vivo efficacy, whole-body infected mouse model, Ceftazidime-sensitive bacteria. The arrangement: species or system ICR mouse. The following applies: P. aeruginosa 1912E (2 × 10^6CFU/mouse); for Survival rate: four days. The protocol:
(§3) Pharmaceutical efficacy of the cephalosporin derivative compounds according to the present invention was evaluated in a whole-body infected mouse model. Tables 3 and 4 show survival rate and ED50 values for the two compounds with excellent antibacterial activity with regard to an infected mouse by a drug-sensitive bacteria and a drug-resistant bacteria.
(§4) Test animals: 3 week old male ICR mouse, weight 18˜22 g; 5 mice/group.
(§5) Lab conditions: Temperature of 23±2° C.; humidity of 55±20%.
(§6) Administration method: Inducing whole-body infection by bacterial solution followed by subcutaneous injection (0.2 mL) after 1 hour and 4 hours.
(§7) Test method: Cultured bacteria were diluted with 0.9% NaCl to prepare a bacterial solution having a concentration that is 5 to 10 times of […]. 0.5 mL of bacterial solution was injected through abdominal cavity to induce whole-body infection. Test compounds were administered in four different amounts, which were designed considering in vitro MIC values of the test bacteria. After 1 hour and 4 hours, the four different amounts of the test compounds were subcutaneously administered. Survival rates were measured for four days and ED50 values were calculated according to the Probit method.

Experiment [5] deals with P. aeruginosa R1023. Kind of experiment: In vivo efficacy, whole-body infected mouse model, Ceftazidime-resistant bacteria.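 On Survival rate: each column one dose of 5 10 20 or 40 mg/kg given sc at 1 h and 4 h.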 The following applies: for ED50: Pseudomonas aeruginosa, sc, Probit method, subcutaneous, mouse infected by Ceftazidime-resistant P. aeruginosa R1023; for Survival rate: subcutaneous 1 h and 4 h after infection, P. aeruginosa R1023 (2 × 10^6 CFU/mouse), four days. More on the design: species or system ICR mouse. The protocol:
as §3, §4, §5, §6, §7

Experiment [6] concerns P. aeruginosa 37. Description: In vitro antibacterial activity test (broth microdilution). Format: cell-based. The following applies: Pseudomonas aeruginosa, 37, P. aeruginosa 37; read-out: MIC90. Put shortly: (§8)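 Stocks at 10,240 ug/mL in DMSO, serially diluted in DMSO then water to final 0.0626–128 ug/mL (2.5% V/V DMSO). CLSI broth microdilution; MIC90, ug/mL.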
Background: In broth dilution the organism is exposed to a series of concentrations in liquid medium.

Experiment [7] relates to K. pneumoniae β10. The description is as above. Format: cell-based. The note with it: Klebsiella pneumoniae; K. pneumoniae β10; read-out: MIC90. The method, boiled down:
as §8

Experiment [8] deals with A. calcoaceticus ATCC15473. Described as above. Format: cell-based. The following applies: Acinetobacter calcoaceticus; A. calcoaceticus ATCC15473; read-out: MIC90. The method, boiled down: as §8
Experiment [9] concerns K. pneumoniae 2011E. The experiment is described as above. It is filed as cell-based. The following applies: Klebsiella pneumoniae, 2011E, K. pneumoniae 2011E; read-out: MIC90. Put shortly:
as §8

The test system of experiment [10] is P. aeruginosa 40. Described as above. It is filed as cell-based. The following applies: Pseudomonas aeruginosa, 40, P. aeruginosa 40; read-out: MIC90. Put shortly:
as §8

In experiment [11] the test system is A. baumannii 46. The experiment is described as above. The following applies: Acinetobacter baumannii; A. baumannii 46; read-out: MIC90. It is filed as cell-based. The method, boiled down:
as §8

Experiment [12] has as its system E. coli AG100. Described as above. Format: cell-based. The following applies: Escherichia coli, AG100, E. coli AG100; read-out: MIC90. The method, boiled down:
as §8

For experiment [13], the system named is K. pneumoniae β13. Described as above. The note with it: Klebsiella pneumoniae, K. pneumoniae β13; read-out: MIC90. It is filed as cell-based. The method, boiled down: as §8
Experiment [14] deals with K. pneumoniae β11. Described as above. Format: cell-based. The following applies: Klebsiella pneumoniae; K. pneumoniae β11; read-out: MIC90. Put shortly:
as §8

Experiment [15] concerns K. pneumoniae β14. The description is as above. The following applies: Klebsiella pneumoniae, read-out: MIC90. It is filed as cell-based. The method, boiled down: as §8
For experiment [16], the system named is M. catarrhalis 2524. The experiment is described as above. Format: cell-based. The note with it: Moraxella catarrhalis; M. catarrhalis 2524; read-out: MIC90. Put shortly: as §8
The test system of experiment [17] is K. pneumoniae β9. The description is as above. The following applies: Klebsiella pneumoniae, K. pneumoniae β9; read-out: MIC90. It is filed as cell-based. The method, boiled down: as §8
Experiment [18] relates to E. cloacae β19. The experiment is described as above. It is filed as cell-based. The note with it: Enterobacter cloacae, read-out: MIC90. The method, boiled down:
as §8

Experiment [19] deals with A. baumannii 52. The description is as above. It is filed as cell-based. The following applies: Acinetobacter baumannii; A. baumannii 52; read-out: MIC90. The method, boiled down: as §8
The test system of experiment [20] is P. aeruginosa 6065Y. The experiment is described as above. Format: cell-based. The following applies: Pseudomonas aeruginosa, read-out: MIC90. The method, boiled down: as §8
Experiment [21] deals with P. aeruginosa 43. Described as above. The following applies: Pseudomonas aeruginosa; P. aeruginosa 43; read-out: MIC90. It is filed as cell-based. The method, boiled down:
as §8

The test system of experiment [22] is P. aeruginosa 1912E. The experiment is described as above. The following applies: Pseudomonas aeruginosa, 1912E, read-out: MIC90. Format: cell-based. The method, boiled down:
as §8

For experiment [23], the system named is E. coli β4. The experiment is described as above. It is filed as cell-based. The note with it: Escherichia coli, read-out: MIC90. The method, boiled down: as §8
The subject of experiment [24] is A. baumannii 49. The description is as above. Format: cell-based. The following applies: Acinetobacter baumannii; A. baumannii 49; read-out: MIC90. Put shortly: as §8

The ED50 is the dose at which the effect has come halfway, by size or by number of responders. One may read the MIC90 as the lowest concentration that inhibits either 90% of growth or 90% of the strains tested, depending on the study.

Values after ≈ are worked out from the molar mass of the structure shown.

For `Cn1c(N)c(NC(=O)NCCN)c[n+]1CC1=C(C(=O)O)N2C(=O)[C@@H](NC(=O)/C(=N\OC(C)(C)C(=O)[O-])c3nsc(N)n3)[C@H]2SC1` [CXA-101, reference compound], the “number of clinical isolates that showed the respective MIC value” (“number” below) in experiment [1] (MIC >16 ug/mL) came to 6; in experiment [2] (MIC 2 ug/mL) it was 4; in experiment [2] (MIC 4 ug/mL), 4; in experiment [2] (MIC 8 ug/mL) it was 1; in experiment [2] (MIC >16 ug/mL) it was 7; in [3] (MIC 1 ug/mL), 1. Besides, the figures for the “number” value in experiment [3] (MIC 2 ug/mL), in [3] (MIC 16 ug/mL) and in experiment [3] (MIC >16 ug/mL) were 1, 1 and 35, respectively.

Consider `CC(C)(O/N=C(\C(=O)N[C@@H]1C(=O)N2C(C(=O)[O-])=C(C[n+]3ccccc3)CS[C@H]12)c1csc(N)n1)C(=O)O` [Ceftazidime, reference compound], for which the Survival rate is recorded as 40% in experiment [4] (2.5 mg/kg subcutaneous after 1 hour and 4 hours); 80% in experiment [4] (5 mg/kg subcutaneous after 1 hour and 4 hours); 100% in experiment [4] (10 mg/kg subcutaneous after 1 hour and 4 hours); 100% in experiment [4] (20 mg/kg subcutaneous after 1 hour and 4 hours); 0% in [5] (administered amount 5 mg/kg); 20% in [5] (administered amount 10 mg/kg). The Survival rate in [5] (administered amount 20 mg/kg) and in experiment [5] (administered amount 40 mg/kg) was 20% in each case. For the same compound, the ED50 is 2.5 mg/kg in experiment [4] (Pseudomonas aeruginosa, sc, subcutaneous, Probit method) and 640 mg/kg in [5]. In addition, the “number” value came out at 6 in experiment [1] (MIC >16 ug/mL); 1 in experiment [2] (MIC 2 ug/mL); 2 in experiment [2] (MIC 4 ug/mL); 1 in experiment [2] (MIC 8 ug/mL); 1 in experiment [2] (MIC 16 ug/mL); 11 in [2] (MIC >16 ug/mL). Moreover, the “number” value in experiment [3] (MIC 0.5 ug/mL) is given as 2; in [3] (MIC 4 ug/mL), 1; in experiment [3] (MIC 16 ug/mL), 3; in experiment [3] (MIC >16 ug/mL), 32. Further, the MIC90 in experiment [6] is 64 µg/mL (≈ 117 µM); in experiment [7], 32 µg/mL (≈ 58.5 µM); in experiment [8], 1 µg/mL (≈ 1.83 µM); in experiment [9] it was 1 µg/mL (≈ 1.83 µM); in experiment [10], 4 µg/mL (≈ 7.32 µM); in [11] it was 4 µg/mL (≈ 7.32 µM). For the same compound, the MIC90 in [12] was 0.5 µg/mL (≈ 0.915 µM); in [13], 32 µg/mL (≈ 58.5 µM); in experiment [14] it was 64 µg/mL (≈ 117 µM); in experiment [15], 64 µg/mL (≈ 117 µM); in experiment [16], under 0.0625 µg/mL; in experiment [17], 16 µg/mL (≈ 29.3 µM). Moreover, the MIC90 in experiment [18] was 32 µg/mL (≈ 58.5 µM); in experiment [19] it was over 64 µg/mL; in experiment [20], 32 µg/mL (≈ 58.5 µM); in experiment [21] it was 16 µg/mL (≈ 29.3 µM); in experiment [22], 1 µg/mL (≈ 1.83 µM); in experiment [23], 8 µg/mL (≈ 14.6 µM). For the same compound, the MIC90 in [24] was over 64 µg/mL.

Consider `C[C@@H](O)[C@H]1C(=O)N2C(C(=O)O)=C(S[C@@H]3CN[C@H](CNS(N)(=O)=O)C3)[C@H](C)[C@H]12` [Doripenem, reference compound], for which the “number” value in experiment [1] (MIC 16 ug/mL) came to 1; in [1] (MIC >16 ug/mL), 5; in experiment [2] (MIC 4 ug/mL), 1; in [2] (MIC 8 ug/mL) it was 1; in [2] (MIC 16 ug/mL), 5; in [2] (MIC >16 ug/mL) it was 9. For the same compound, the “number” value in experiment [3] (MIC 0.0625 ug/mL) is on record as 1; in [3] (MIC 0.125 ug/mL) it was 6; in [3] (MIC 0.25 ug/mL) it was 3; in experiment [3] (MIC 0.5 ug/mL), 5; in [3] (MIC 1 ug/mL), 6; in [3] (MIC 2 ug/mL), 5. Besides, the figures for the “number” value in [3] (MIC 8 ug/mL), in [3] (MIC 16 ug/mL) and in experiment [3] (MIC <0.0625 ug/mL) were 4, 2 and 6, respectively. The ED50 in [5] is 28 mg/kg. Further, the Survival rate in experiment [5] (administered amount 5 mg/kg) was 0%; in experiment [5] (administered amount 10 mg/kg), 20%; in [5] (administered amount 20 mg/kg), 20%; in experiment [5] (administered amount 40 mg/kg), 80%.
